Source: patent US5723464A, “Piperazine derivatives” (American Home Products Corporation, priority 1994, dated 1998)

Assays:
[1] = molecular target: T1, 5-HT1A receptor (Rattus norvegicus, UniProt P19327); test: 5-HT1A receptor binding affinity in rat hippocampal membrane homogenate; parameters: in rat hippocampal membrane homogenate; from tissue; host or cells: rat hippocampal membrane homogenate; details: for IC50: rat hippocampal membrane homogenate; for Ratio 5HT1A / α1 (binding selectivity): ratio of 5-HT1A binding to α1 binding
T1 sequence (P19327 1-422): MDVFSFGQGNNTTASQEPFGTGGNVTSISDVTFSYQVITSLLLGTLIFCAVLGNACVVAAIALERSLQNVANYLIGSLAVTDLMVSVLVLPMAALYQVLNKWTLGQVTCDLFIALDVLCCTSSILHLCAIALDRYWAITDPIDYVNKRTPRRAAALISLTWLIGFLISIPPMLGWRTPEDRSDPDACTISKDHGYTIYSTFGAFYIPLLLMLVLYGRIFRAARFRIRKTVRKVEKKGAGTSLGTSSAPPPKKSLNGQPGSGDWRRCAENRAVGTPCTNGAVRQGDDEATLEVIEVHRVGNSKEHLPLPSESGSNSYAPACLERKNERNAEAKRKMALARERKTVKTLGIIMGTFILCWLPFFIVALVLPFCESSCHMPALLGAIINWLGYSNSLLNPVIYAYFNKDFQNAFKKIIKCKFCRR
Protocol: The compounds were tested for 5-HT1A binding affinity (column 2) in rat hippocampal membrane homogenate by the method of B. S. Alexander and M. D. Wood, J. Pharm. Pharmacol., 1988, 40, 888-891.

[2] = molecular target: α1 receptor; test: α1 receptor binding affinity
Protocol: The compounds were tested for α1 binding affinity (column 3) by the procedure of A. L. Marrow et al, Mol. Pharmacol., 1986, 29, 321.

[3] = molecular target: T1, 5-HT1A receptor; test: Oral 5-HT1A receptor antagonist activity: antagonism of 8-OH-DPAT syndrome in rats; type: in vivo
Protocol: 5-HT1A receptor antagonist activity (columns 5 and 6) is assessed by the ability of the selective 5-HT1A receptor agonist, 8-OH-DPAT, to induce the `8-OH-DPAT syndrome` in rats characterised by extended flat body posture, forepaw treading and hyperlocomotion. The 8-OH-DPAT syndrome is scored as present (definite syndrome response) or absent (equivocal or no syndrome response) during the period 0-5 min following intravenous (i.v.) administration of the test agonist via a lateral tail vein.
A range of doses, on a logarithmic scale and encompassing the expected ED50, were chosen for the test agonist following preliminary evaluation. […]
Test antagonists were administered orally (p.o.) 60 min, before i.v. administration of 8-OH-DPAT. ED50 values for 8-OH-DPAT were determined for the different pretreatment groups using the sequential up/down procedure as described above.
The response to the selective 5-HT1A receptor agonist, 8-OH-DPAT, is represented as an ED50 value for induction of the 8-OH-DPAT syndrome, which is determined using the sequential up/down analysis following intravenous administration. 5-HT1A antagonist activity is determined by the ability of the test compound to antagonise the response to 8-OH-DPAT, i.e. to increase the ED50 for induction of the 8-OH-DPAT syndrome compared with vehicle pretreatment. […]

IC50 [1] [nM]	Ratio 5HT1A / α1 (binding selectivity) [1]	5-HT1A binding affinity (in words) [1]	5-HT1A/α1 selectivity (in words) ([1]; binding affinity at 5-HT1A compared to α1 receptors)	IC50 [2] [nM]	5-HT1A antagonist Ratio (ED50 antagonist @ 3mg/kg po)/ED50 vehicle ([3]; ED50 of 8-OH-DPAT (i.v.) after test compound 3 mg/kg p.o. divided by ED50 after vehicle, rats)	Structure (SMILES)	5-HT1A antagonist oral activity (in words) ([3]; oral, compared to compounds of EP-A-512755)
6.8	142.5	–	–	–	–	C[C@H](CN(C(=O)C1CCCCC1)c1ccccn1)N1CCN(c2cccc3[nH]ccc23)CC1 [Compound A2, (R)-N-(2-methyl-2-(4-indolyl-1-piperazinyl)ethyl)-N-(2-pyridyl)-cyclohexanecarboxamide]	–
4.3	564.4	–	–	–	–	C[C@H](CN1CCN(c2cccc3[nH]ccc23)CC1)N(C(=O)C1CCCCC1)c1ccccn1 [Compound A1, (R)-N-(1-methyl-2-(4-indolyl-1-piperazinyl)ethyl)-N-(2-pyridyl)-cyclohexanecarboxamide]	–
3.2	317.5	good 5-HT1A binding affinity	good	1020	34.4	O=C(C1CCCCC1)N(CCN1CCN(c2cccc3[nH]ccc23)CC1)c1ccccn1 [Compound A3]	surprising increase in oral activity as 5-HT1A antagonists
